Where “and” joins values, the source holds several entries; their conditions need not be identical. Identical values can stand only once. Marks after values point to notes of the source that are not given here.
Assays:
[1] = Comparative oral bioavailability of oxycodone from various dicarboxylate bridged amino acid prodrugs in dogs (nine-way crossover); type: in vivo, dog; conditions: 1 mg/kg oxycodone free base, mean (±sd)
[2] = Comparative pharmacokinetics of oxycodone in the cynomolgus monkey after oral administration; conditions: for T>50%Cmax of oxycodone: oral
[3] = In vitro stability of dicarboxylate amino acid ester prodrugs in simulated gastric and intestinal juice, distilled water and pH 10 buffer (HPLC); conditions: for Simulated gastric fluid (pH 1.1): % remaining after 2 h/37° C.: pH 1.1, 2 h; for Simulated intestinal fluid (pH 6.8): % remaining after 2 h/37° C.: pH 6.8, 2 h; for Distilled water (pH 5.9): % remaining after 2 h/20° C.: pH 5.9, 2 h; for pH 10.0 buffer: % remaining after 2 h/20° C.: pH 10.0, 2 h
[4] = Bioavailability of oxycodone, codeine and dihydrocodeine from their succinyl valine ester prodrugs in the dog (oral gavage, two-way crossover); conditions: dogs, oral gavage; for T>50%Cmax of codeine: 1 mg free base equivalents codeine/kg; for T>50%Cmax of dihydrocodeine: 1 mg free base equivalents dihydrocodeine/kg
Protocol: The characteristics of the test animals are set out in Table 10, below.
Blood samples were taken at various times after administration and submitted to analysis for the parent drug and pro-drug using a validated LC-MS-MS assay. Pharmacokinetic parameters derived from the plasma analytical data were determined using Win Nonlin.

gut motility in the rat = assay: Charcoal propulsion test of GI motility in the rat; type: in vivo; conditions: oral
Protocol: Test treatments were administered to groups of up to 10 rats fasted overnight prior to the test.
Test treatments were administered orally 60 minutes prior to a 2.0 mL oral dose of a 10% suspension of charcoal in 5% gum arabic. Thirty minutes after dosing with charcoal, the rats were sacrificed and the entire gastro-intestinal tract quickly and carefully removed. The distance the charcoal meal had traveled from the pyloric sphincter toward the caecum was measured and expressed as a percentage of both the total gut length and the length of the small intestine.

[5] = Stability of meptazinol dicarboxylate bridged amino acid prodrugs in simulated gastric and intestinal juice and pH 7.4 buffer; type: physicochemical; conditions: for 2 h stability in pH7.4 buffer (37° C.), Conversion to meptazinol: pH 7.4 buffer
From the text: Initially the inherent chemical and biological stability of various dicarboxylate bridged amino acid prodrugs of meptazinol, was investigated under the conditions prevailing in the GI tract. Premature hydrolysis of the prodrug in the gut lumen prior to absorption would reduce the opportunity for transient protection of the drug during its passage though the liver and the desired reduction in first pass metabolism.
The remaining concentrations of the prodrug (and also drug released) were then assayed by HPLC. Additionally their chemical stability was evaluated in pH 7.4 buffer for 2 h 37° C.

[6] = Plasma pharmacokinetics of meptazinol dicarboxylate linked prodrugs after oral gavage to dogs; type: in vivo, dog; conditions: dog, 1 mg meptazinol base equivalents/kg; for Dog Cmax (plasma meptazinol) / Dog Cmax (plasma prodrug levels, in brackets): oral gavage of prodrug; for Dog Cmax (plasma meptazinol): meptazinol level; for Dog Cmax (plasma prodrug levels, in brackets): prodrug level, BLQ = below 0.5 ng/mL; for systemic levels of meptazinol versus expected Cmax after the drug itself: oral gavage
[7] = Plasma pharmacokinetics of meptazinol dicarboxylate linked prodrugs after oral gavage to cynomolgus monkeys; type: in vivo, cynomolgus monkey; conditions: 1 mg meptazinol base equivalents/kg; for Monkey Cmax (plasma meptazinol) / Monkey Cmax (plasma prodrug levels, in brackets): cynomolgus monkey, oral gavage of prodrug; for Monkey Cmax (plasma meptazinol): meptazinol level; for Monkey Cmax (plasma prodrug levels, in brackets): prodrug level, BLQ = below 0.5 ng/mL; for improvement in systemic levels of meptazinol: monkey, oral gavage
[8] = simulated intestinal fluid, 2 h

COc1ccc2c3c1O[C@H]1C(OC(=O)CCCC(=O)N[C@@H](CC(C)C)C(=O)O)=CC[C@@]4(O)[C@@H](C2)N(C)CC[C@]314 [Oxycodone-Glutaryl-Leu Enol Ester, oxycodone-[glutaryl-(S)-leucine] enol ester]
T50% Cmax of oxycodone [1]: 3.4 (±0.7) h. | Cmax of intact prodrug ([2]; male cynomolgus monkeys, oral prodrug, 1 mg oxycodone free base equivalents/kg, individual monkeys 1-5): BLQ | T>50%Cmax of oxycodone ([2]; male cynomolgus monkeys, 1 mg oxycodone free base equivalents/kg, individual monkeys 1-5): 2.33 h and 2.40 h and 3.13 h and 4.66 h and 1.80 h | T>50%Cmax of oxycodone ([2]; male cynomolgus monkeys, 1 mg oxycodone free base equivalents/kg, mean (n=5)): 2.86 h | T>50%Cmax of oxycodone ([2]; male cynomolgus monkeys, 1 mg oxycodone free base equivalents/kg, mean (n=5), listed as OGLE): 2.9 h | prodrug levels in plasma ([2]; monkeys, oral prodrug): below the limit of quantification | Simulated gastric fluid (pH 1.1): % remaining after 2 h/37° C. [3]: 98% | Simulated intestinal fluid (pH 6.8): % remaining after 2 h/37° C. [3]: 79%

COc1ccc2c3c1O[C@H]1[C@@H](OC(=O)CCC(=O)N[C@H](C(=O)O)C(C)C)C=CC4[C@@H](C2)N(C)CC[C@@]341 (stereo partly drawn) [Codeine-[succinyl-(S)-valine] ester, codeine-[succinyl-(S)-valine]ester]
T>50%Cmax of codeine ([4]; individual dogs 1-5): 2 h (4×) and 1 h | T>50%Cmax of codeine ([4]; median (n=5)): 2^a h | % change from vehicle-treated animals, small intestine (gut motility in the rat; 10 mg/kg): −9.7% | % change from vehicle-treated animals, total gut length (gut motility in the rat; 10 mg/kg): −9.3% | % change from vehicle-treated animals, small intestine (gut motility in the rat; 30 mg/kg): −15.7% | % change from vehicle-treated animals, total gut length (gut motility in the rat; 30 mg/kg): −15.1% | % change from vehicle-treated animals, small intestine (gut motility in the rat; 100 mg/kg): −16.4% | % change from vehicle-treated animals, total gut length (gut motility in the rat; 100 mg/kg): −15.6% | Simulated gastric fluid (pH 1.1): % remaining after 2 h/37° C. [3]: 99% | Distilled water (pH 5.9): % remaining after 2 h/20° C. [3]: 100% | Simulated intestinal fluid (pH 6.8): % remaining after 2 h/37° C. [3]: 98% | pH 10.0 buffer: % remaining after 2 h/20° C. [3]: 92%

CCC1(c2cccc(OC(=O)C=CC(=O)Nc3ccc(C(=O)O)cc3)c2)CCCCN(C)C1 (centres unmarked) [Meptazinol [fumaryl-PABA] ester]
2 h stability in pH7.4 buffer (37° C.), Conversion to meptazinol ([5]; 2 h): 47% | 1 h stability in simulated gastric fluid (37° C.), Conversion to meptazinol [5]: 2% | 2 h stability in simulated intestinal fluid (37° C.), Conversion to meptazinol [5, 8]: 6% | Dog Cmax (plasma meptazinol) [6]: 1.5 ng/mL | Dog Cmax (plasma prodrug levels, in brackets) [6]: BLQ | Monkey Cmax (plasma meptazinol) [7]: 1.4 ng/mL | Monkey Cmax (plasma prodrug levels, in brackets) [7]: BLQ

CCC1(c2cccc(OC(=O)CCCC(=O)Nc3ccc(C(=O)O)cc3)c2)CCCCN(C)C1 (centres unmarked) [Meptazinol [glutaryl-PABA] ester]
2 h stability in pH7.4 buffer (37° C.), Conversion to meptazinol ([5]; 2 h): 80% | 1 h stability in simulated gastric fluid (37° C.), Conversion to meptazinol [5]: 5% | 2 h stability in simulated intestinal fluid (37° C.), Conversion to meptazinol [5, 8]: 6% | Dog Cmax (plasma meptazinol) [6]: 3.4 ng/mL | Dog Cmax (plasma prodrug levels, in brackets) [6]: 6.7 ng/mL | Monkey Cmax (plasma meptazinol) [7]: 1.5 ng/mL | Monkey Cmax (plasma prodrug levels, in brackets) [7]: 1.7 ng/mL

CCC1(c2cccc(OC(=O)CC(C)(C)CC(=O)Nc3ccc(C(=O)O)cc3)c2)CCCCN(C)C1 (centres unmarked) [Meptazinol [3,3-dimethyl-glutaryl-PABA]ester]
2 h stability in pH7.4 buffer (37° C.), Conversion to meptazinol ([5]; 2 h): 93% | 1 h stability in simulated gastric fluid (37° C.), Conversion to meptazinol [5]: 1% | 2 h stability in simulated intestinal fluid (37° C.), Conversion to meptazinol [5, 8]: 5% | systemic levels of meptazinol versus expected Cmax after the drug itself [6]: improved systemic levels of meptazinol | Dog Cmax (plasma meptazinol) [6]: 9.4 ng/mL | Dog Cmax (plasma prodrug levels, in brackets) [6]: 25 ng/mL | Monkey Cmax (plasma meptazinol) [7]: 1.3 ng/mL | Monkey Cmax (plasma prodrug levels, in brackets) [7]: BLQ | improvement in systemic levels of meptazinol [7]: not seen in the monkey

CCC1(c2cccc(OC(=O)c3ccccc3C(=O)N[C@@H](Cc3ccccc3)C(=O)O)c2)CCCCN(C)C1.O=C(O)C(F)(F)F (stereo partly drawn) [meptazinol [phthalyl-(S)-phenylalanine]ester trifluoroacetate]
2 h stability in pH7.4 buffer (37° C.), Conversion to meptazinol ([5]; 2 h): 72% | 1 h stability in simulated gastric fluid (37° C.), Conversion to meptazinol [5]: 3% | 2 h stability in simulated intestinal fluid (37° C.), Conversion to meptazinol [5, 8]: 30% | degradation in 2 h in simulated intestinal fluid ([5]; simulated intestinal fluid, 2 h, 37° C.): ~30% | systemic levels of meptazinol versus expected Cmax after the drug itself [6]: improved systemic levels of meptazinol | Dog Cmax (plasma meptazinol) [6]: 9.1 ng/mL | Dog Cmax (plasma prodrug levels, in brackets) [6]: 71 ng/mL | Monkey Cmax (plasma prodrug levels, in brackets) [7]: BLQ | improvement in systemic levels of meptazinol [7]: not seen in the monkey

CCC1(c2cccc(OC(=O)C(C)(C)CC(=O)N[C@H](C(=O)O)C(C)C)c2)CCCCN(C)C1 (stereo partly drawn) [Meptazinol-[2,2-dimethylsuccinyl-(S)-valine] ester]
2 h stability in pH7.4 buffer (37° C.), Conversion to meptazinol ([5]; 2 h): 2% | 2 h stability in simulated intestinal fluid (37° C.), Conversion to meptazinol [5, 8]: 3% | Dog Cmax (plasma meptazinol) [6]: 0.9 ng/mL | Dog Cmax (plasma prodrug levels, in brackets) [6]: 25 ng/mL | Monkey Cmax (plasma meptazinol) [7]: 0.4 ng/mL | Monkey Cmax (plasma prodrug levels, in brackets) [7]: 100 ng/mL

CCC1(c2cccc(OC(=O)CCC(=O)N3CCC[C@H]3C(=O)O)c2)CCCCN(C)C1 (stereo partly drawn) [Meptazinol-[succinyl-(S)-proline] ester]
2 h stability in pH7.4 buffer (37° C.), Conversion to meptazinol ([5]; 2 h): 4% | 1 h stability in simulated gastric fluid (37° C.), Conversion to meptazinol [5]: 4% | 2 h stability in simulated intestinal fluid (37° C.), Conversion to meptazinol [5, 8]: 4% | Dog Cmax (plasma meptazinol) [6]: 0.7 ng/mL | Dog Cmax (plasma prodrug levels, in brackets) [6]: 36 ng/mL | Monkey Cmax (plasma meptazinol) [7]: 2.0 ng/mL | Monkey Cmax (plasma prodrug levels, in brackets) [7]: 16 ng/mL

COc1ccc2c3c1O[C@H]1[C@@H](O)C=C[C@H]4[C@@H](C2)N(C)CC[C@@]341 [codeine, reference compound]
T>50%Cmax of codeine ([4]; median (n=5)): 1.2 h | delay of the passage of the charcoal meal (gut motility) (gut motility in the rat; 30 mg/kg or equimolar dose): greater than 30%

COc1ccc2c3c1O[C@H]1[C@@H](OC(=O)CCC(=O)NC(C(=O)O)C(C)C)CCC4[C@@H](C2)N(C)CC[C@@]341 (stereo in doubt) [dihydrocodeine-[succinyl-(S)-valine]ester]
T>50%Cmax of dihydrocodeine ([4]; individual dogs 1-5): 3 h (2×) and 2 h and 1 h (2×) | T>50%Cmax of dihydrocodeine ([4]; median (n=5)): 2^a h | % change from vehicle-treated animals, small intestine (gut motility in the rat; 10 mg/kg): −17.4% | % change from vehicle-treated animals, total gut length (gut motility in the rat; 10 mg/kg): −16.6% | % change from vehicle-treated animals, small intestine (gut motility in the rat; 30 mg/kg): −8.5% | % change from vehicle-treated animals, total gut length (gut motility in the rat; 30 mg/kg): −8.5% | % change from vehicle-treated animals, small intestine (gut motility in the rat; 100 mg/kg): −13.3% | % change from vehicle-treated animals, total gut length (gut motility in the rat; 100 mg/kg): −12.9% | % change from vehicle-treated animals, small intestine (gut motility in the rat; 300 mg/kg): −35.7% | % change from vehicle-treated animals, total gut length (gut motility in the rat; 300 mg/kg): −35.3% | Simulated gastric fluid (pH 1.1): % remaining after 2 h/37° C. [3]: 100% | Distilled water (pH 5.9): % remaining after 2 h/20° C. [3]: 100% | Simulated intestinal fluid (pH 6.8): % remaining after 2 h/37° C. [3]: 100% | pH 10.0 buffer: % remaining after 2 h/20° C. [3]: 98%

COc1ccc2c3c1O[C@H]1[C@@H](O)C=C[C@H]4[C@@H](C2)N(C)CC[C@@]341.Cl [Codeine HCl, reference compound]
T>50%Cmax of codeine ([4]; individual dogs 1-5, HCl): 1.5 h (3×) and 0.5 h (2×) | T>50%Cmax of codeine ([4]; median (n=5)): 1.5^a h
